Assay results as given in patent US10548864B2, “Enhanced ATRA-related compounds for the treatment of proliferative diseases, autoimmune diseases, and addiction conditions” (Beth Israel Deaconess Medical Center, Inc., priority 2015, dated 2020).

What was measured:
NB4 cells = test: APL cell differentiation (Giemsa staining, FACS with CD14 and CD11b); format: cell-based, human; conditions: 72 hours
Source text: The latter result could be attributed to the stabilization of RAR protein upon Pin1 KD.

human APL NB4 cells [1] = test: Immunoblot of Pin1 and PML-RARα in APL NB4 cells; format: cell-based; conditions: for PML-RARα level: APL cells; for PML-RARα level / Pin1 degradation: 72 hours
GST-Pin1 [2] = molecular target: T1, GST-Pin1 (Homo sapiens, UniProt Q13526); test: Fluorescence polarization pTide competition assay (FP-HTS / FP assay)
T1 sequence (Q13526 whole entry): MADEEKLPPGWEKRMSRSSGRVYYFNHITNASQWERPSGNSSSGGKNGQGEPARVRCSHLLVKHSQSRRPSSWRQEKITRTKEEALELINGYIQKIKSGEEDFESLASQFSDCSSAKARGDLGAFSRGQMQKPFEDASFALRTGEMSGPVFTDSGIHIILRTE
Source text: Measurements of fluorescence polarization and fluorescence absorbance were made in black 384-well plates (Corning) using a Synergy II plate reader. […] The assay can tolerate up to 10% DMSO.
Molecules that compete with pTide for binding to the active site, e.g., Pin1 substrates, were detected under equilibrium conditions. A Z score was used to identify and rank those molecules that were most competitive with pTide (e.g., that have higher binding affinity). A Z score is defined as Z=(x−μ)/σ, where x is a raw score, μ is the mean of the population, and σ is the standard deviation of the population. Molecules with the most negative Z scores represent those with the highest Pin1 binding affinity. The Z′ value for this assay was around 0.70 and was consistent for day-to-day performance, with a coefficient of variation in the range of 4-5%.

GST-FKBP12 = GST-FKBP12 (Homo sapiens, UniProt P62942); test: Chymotrypsin coupled PPIase activity assay; format: biochemical
GST-FKBP12, sequence (P62942 whole entry): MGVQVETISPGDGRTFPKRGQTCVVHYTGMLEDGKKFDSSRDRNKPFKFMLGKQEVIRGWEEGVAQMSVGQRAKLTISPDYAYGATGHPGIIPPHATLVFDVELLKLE
Description: (§1) Compounds were preincubated with enzymes for 0.5 to 2 hours at 4° C. Ki values obtained from PPIase assays are derived from the Cheng-Prusoff equation:
(§2) [formula] where Km is the Michaelis constant for the used substrate, S is the initial concentration of the substrate in the assay, and the IC50 value is of the inhibitor. Cell Growth Assays

GST-Pin1 [3] = molecular target: T1, GST-Pin1; test: Chymotrypsin coupled PPIase activity assay; format: biochemical
Description: as §1, §2

GST-cyclophilin = test: Chymotrypsin coupled PPIase activity assay; format: biochemical
Description: Compounds were preincubated with enzymes for 0.5 to 2 hours at 4° C. Ki values obtained from PPIase assays are derived from the Cheng-Prusoff equation: [formula] where Km is the Michaelis constant for the used substrate, S is the initial concentration of the substrate in the assay, and the IC50 value is of the inhibitor. Cell Growth Assays

[4] = system: APL cells from hCG-PML-RARα transgenic mice; conditions: APL mouse model
[5] = system: mouse embryonic fibroblasts (MEFs); test: Cell growth assay in Pin1 WT and Pin1 KO MEFs
Description: (§3) For cell growth assays described below, cells were seeded in a density of 3000 cells per well in 96-well flat-bottomed plates, and incubated for 24 h in 10% FBS-supplemented DMEM culture medium. […] Control cells received DMSO at a concentration equal to that in drug-treated cells. After 72 hours, the number of cells was counted after trypsin digestion, or medium containing 0.5 mg/ml 3-(4,5-dimethylthiazol-2-yl)-2,5-diphenyl-2H-tetrazolium bromide was added to each well for 2 hours of incubation at 37° C., followed by removal of the media before the addition of 200 μl DMSO. Absorbance was determined at 570 nm.

Pin1 and PML-RARα = Pin1 and PML-RARα immunostaining in bone marrow of APL patients treated with ATRA
Description: Tissue samples were washed with PBS and fixed with 4% paraformaldehyde at room temperature for 20 minutes, followed by permeabilization and blocking with PBS containing 0.1% Triton X-100 and 5% FBS for 1 hour. After another wash with PBS, immunostaining was performed by incubating the cells with mouse anti-Pin1 (1:1000), or rabbit anti-PML (Santa Cruz; 1:100) primary antibodies at 4° C. overnight. Primary antibodies were diluted in PBS containing 0.1% Triton X-100, 0.2% BSA, 0.5 mM PMSF, and 1 mM dithiothreitol. […] Samples were nuclear counterstained with 4,6-diamidino-2-phenylindole (DAPI), mounted and visualized with a LSM510 confocal imaging system.
Bone marrow aspirates were obtained with informed consent from the iliac crest of patients in whom the diagnosis of acute promyelocytic leukemia was suspected based on the morphological evaluation of peripheral blood smear. […] Samples tested positive for the PML/RARα rearrangement by RT-PCR.

[6] = system: human normal and breast cancer cell lines; test: Cell growth of human normal and breast cancer cell lines; format: cell-based
Description: Absorbance was determined at 570 nm.
To test this possibility, we chose breast cancer as a model due to the substantial oncogenic role of Pin1 in vitro and in vivo.

RAR = test: Transactivation of RAR downstream target genes
cyclin D1 promoter = test: Cyclin D1 promoter luciferase activity upon Pin1 overexpression; conditions: 72 hours
MDA-MB-468 cells = test: MDA-MB-468 xenograft in nude mice
Description: Tumor sizes were measured weekly and mice were sacrificed after 7 weeks to collect tumor tissues (37D). […] Pin1 and cyclin D1 in xenograft tumors were assayed by IB (37F).
(§4) In pilot experiments, MDA-MB-231 cells were subcutaneously injected into female nude mice in the flank.

[7] = in humans; cited from earlier work
Pin1 [8] = test: Immunoblot of Pin1 and its substrate oncogenes and tumor suppressors in breast cells
Description: For immunoprecipitation and immunoblotting in the examples below, cells were polyethylenimine (PEI)- or lipofemamine-transfected with 8 μg of various plasmids, incubated in 10 cm dishes for 24 hours, and subsequently treatment with drugs as needed. […] After centrifugation at 13,000 g for 10 minutes, one tenth of the supernatant was stored as input, and the remainder was incubated 12 hours with M2 Flag agarose (Sigma). After brief centrifugation, immunoprecipitates were collected, extensively washed with the aforementioned lysis buffer twice, suspended in 2×SDS sample buffer (100 mM Tris-HCl, pH 6.8, 4% SDS, 5% β-mercaptoethanol, 20% glycerol, and 0.1% bromphenol blue), boiled for 10 minutes, and subjected to immunoblotting analysis. […] After electrophoresis, gel was transferred to nitrocellulose membranes using a semidry transfer cell. The transblotted membrane was washed twice with Tris-buffered saline containing 0.1% Tween 20 (TBST). After blocking with TBST containing 5% bovine serum albumin (BSA) for 1 hour, the membrane was incubated with the appropriate primary antibody (diluted 1:1000) in 2% BSA-containing TBST at 4° C. overnight. After incubation with the primary antibody, the membrane was washed three times with TBST for a total of 30 minutes followed by incubation with horseradish peroxidase (HRP)-conjugated goat anti-rabbit or anti-mouse IgG (diluted 1:2500) for 1 hour at room temperature. After three extensive washes with TBST for a total of 30 minutes, the immunoblots were visualized by enhanced chemiluminescence.

SKBR3 cells = test: Foci formation assay upon Pin1 overexpression
Pin1 [9] = molecular target: T2, Pin1 (Mus musculus, UniProt Q9QUR7); test: Pin1 level, mRNA and stability in MEFs (immunoblot, RT-PCR, CHX chase); format: cell-based
T2 construct: endogenous in cells; host or cells: mouse embryonic fibroblasts (MEFs)
T2 sequence (Q9QUR7 whole entry): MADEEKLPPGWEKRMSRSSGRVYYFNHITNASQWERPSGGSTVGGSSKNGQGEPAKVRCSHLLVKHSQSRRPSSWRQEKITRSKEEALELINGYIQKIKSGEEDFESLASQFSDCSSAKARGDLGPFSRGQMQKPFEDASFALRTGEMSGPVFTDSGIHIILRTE
Description: RNA from cells was extracted with the Total RNA isolation mini kit (Agilent). cDNA was prepared with transcriptor first strand cDNA synthesis kit (Roche) and PCR was carried out with iQ SYBR Green Supermix (Bio-Rad). Samples were run on the QIAGEN Rotor-Gene Q real-time cycler. GAPDH was used as an internal control. Analysis was performed with the delta-delta ct method. The following primers were used: […]

NIH 3T3 cells = test: Centrosome amplification induced by Pin1 overexpression; conditions: 72 hours
MRL/lpr lupus prone mice = test: MRL/lpr lupus prone mice
human APL NB4 cells [10] = test: NB4 cell growth
Description: as §3

MDA-MB-231 cells = test: MDA-MB-231 xenograft in nude mice
Description: Tumor sizes were measured weekly and mice were sacrificed after 7 weeks to collect tumor tissues (37A). […] Pin1 and cyclin D1 in xenograft tumors were assayed by IB (37C).
Tumor sizes were measured weekly and mice were sacrificed after 7 weeks to collect tumor tissues (37G).
Tumor sizes were recorded weekly by a caliber for up to 8 weeks and tumor volumes were calculated using the formula L×W^2×0.52, where L and W represent length and width, respectively.
as §4

[11] = after 10 days of ATRA treatment
[12] = 5 or 10 mg 21 day ATRA-releasing pellets, 1 week after inoculation
[13] = three sensitive cancer cell lines, 72 hours

## CCOC(=O)CN1C(=O)c2ccc3c4c(ccc(c24)C1=O)C(=O)N(CC(=O)OCC)C3=O [PiB]
NB4 cells
  APL cell differentiation: neither Pin1 inhibitors nor Pin1 KD induced APL cell differentiation
Human APL NB4 cells [1]
  PML-RARα level: dose-dependently reduced PML-RARα
Human APL NB4 cells [1]; NB4 cells
  Pin1 degradation: inhibited Pin1 without degrading it

## CC(=O)OC/C=C(C)/C=C/C=C(C)/C=C/C1=C(C)CCCC1(C)C [retinyl acetate]
GST-Pin1 [2]
  Pin1 binding in the FP assay: totally inactive

## COc1cc(C)c(/C=C/C(C)=C/C=C/C(C)=C/C(=O)O)c(C)c1C [acitretin]
GST-Pin1 [2]
  Pin1 binding in the FP assay: moderate binding

## O=C(O)Cc1c[nH]c2ccccc12 [indo-3-acetic acid]
GST-Pin1 [2]
  Pin1 binding in the FP assay: neither pravastatin nor indo-3-acetic acid demonstrated any binding

## CC1(C)CCC(C)(C)c2cc(NC(=O)c3ccc(C(=O)O)cc3)ccc21 [tamibarotene]
GST-Pin1 [2]
  Pin1 binding in the FP assay: moderate binding

## CC1=C(/C=C/C(C)=C/C=C/C(C)=C\C(=O)O)C(C)(C)CCC1 [Compound 13cRA, 13-cis-retinoic acid]
GST-Pin1 [2]; ~8200 compounds screened
  Z score in FP-HTS: lowest Z score
GST-FKBP12
  Inhibition of FKBP12: did not inhibit
GST-Pin1 [3]
  Inhibition of the PPIase activity of Pin1: fully inhibited
GST-cyclophilin
  Inhibition of cyclophilin: did not inhibit

## CC1=C(/C=C/C(C)=C/C=C/C(C)=C/CO)C(C)(C)CCC1 [retinol]
GST-Pin1 [2]
  Pin1 binding in the FP assay: totally inactive

## CC1=C(/C=C/C(C)=C/C=C/C(C)=C/C(=O)O)C(C)(C)CCC1 [ATRA, all-trans retinoic acid]
[4]
  PML-RARα in the bone marrow: effectively reduced PML-RARα in the bone marrow
  Pin1 levels in the bone marrow: reduced Pin1 levels in the bone marrow
  Spleen weight: spleen weights nearly at basal levels
[5]; Pin1 WT MEFs
  Inhibition of growth of Pin1 WT MEFs: relatively high concentrations of ATRA were required
[5]; Pin1 knockout (KO) cells
  Inhibition of growth of Pin1 KO MEFs: much more resistant
Pin1 and PML-RARα; after 3 days of ATRA treatment
  PML-RARα level in bone marrow of APL patients: ~40%
  Pin1 level in bone marrow of APL patients: ~40%
Pin1 and PML-RARα; [11]
  PML-RARα level in bone marrow of APL patients: < 10%
  Pin1 level in bone marrow of APL patients: < 10%
[6]; 72 hours
  Cell growth, malignant breast cancer cells: differential susceptibility
  Cell growth, non-transformed MCF10A and HMLE cells: highly resistant
RAR
  Transactivation of RAR downstream target genes (RARβ, TGM2): effectively and significantly induces transactivation
GST-FKBP12
  Inhibition of FKBP12: did not inhibit
GST-Pin1 [3]
  Inhibition of the PPIase activity of Pin1: fully inhibited
Cyclin D1 promoter
  Activation of the cyclin D1 promoter by Pin1 overexpression: dose-dependently and fully inhibited
MDA-MB-468 cells; [12]
  Tumor growth: potently and dose-dependently inhibited tumor growth
MDA-MB-468 cells; ATRA-releasing pellets
  Pin1 and cyclin D1 in tumors: reduced both Pin1 and its substrate cyclin D1
[7]
  Half-life: ~45 min
Pin1 [8]; MCF10A cells
  Effects on Pin1 and substrate proteins in normal MCF10A cells: no appreciable effects
Pin1 [8]; [13]
  Protein levels of Pin1 and its substrate oncogenes (cyclin D1, HER2, ERa, Akt, NFκB/p65, c-Jun, PKM2): dose-dependent protein reduction
  Protein levels of Pin1 substrate tumor suppressors (Smad2/3, SMRT): protein induction
Human APL NB4 cells [1]
  PML-RARα level: dose-dependently reduced PML-RARα
Human APL NB4 cells [1]; NB4 cells, 10 μM for 96 hours
  Pin1 and PML-RARα expression: reduced Pin1 and PML-RARα expression
SKBR3 cells
  Foci formation enhanced by Pin1 overexpression: dose-dependently and fully inhibited
Pin1 [9]; MEFs, immunoblot
  Pin1 protein level: dose-dependently down-regulated Pin1
Pin1 [9]; MEFs, quantitative RT-PCR
  Pin1 mRNA levels: no obvious effects
Pin1 [9]; RARα, β, and γ triple KO MEFs
  Degradation of PML-RARα and Pin1: induced degradation of PML-RARα and Pin1 similar to that for WT controls
NIH 3T3 cells
  Centrosome amplification induced by Pin1 overexpression: dose-dependently and fully inhibited
MRL/lpr lupus prone mice; 5 mg ATRA for 8 weeks from 8 weeks of age
  Visual lupus-related phenotypes (fur loss, skin inflammation, lymphoid hyperplasia): drastically suppressed visual lupus-related phenotypes in all six treated mice
MRL/lpr lupus prone mice; 14 week-old ATRA-treated mouse
  Size of spleen and lymph node: normal size
MRL/lpr lupus prone mice; mouse, in vivo
  Glomerular deposition of IgG, C3, and CD68: potently inhibited
  Hyperkeratinosis: potently inhibited
Human APL NB4 cells [10]
  NB4 cell proliferation: suppressed
MDA-MB-231 cells; [12]
  Tumor growth: potently and dose-dependently inhibited tumor growth
MDA-MB-231 cells; ATRA implants
  Endogenous and exogenous Pin1 and cyclin D1 in tumors of Pin1-expressing MDA-MB-231 cells: dose-dependently reduced both endogenous and exogenous Pin1, and cyclin D1
  Tumor growth, MDA-MB-231 cells stably expressing Pin1: effectively inhibited by ATRA in a dose-dependent manner
MDA-MB-231 cells; ATRA-releasing pellets
  Pin1 and cyclin D1 in tumors: reduced both Pin1 and its substrate cyclin D1
MDA-MB-231 cells; intraperitoneally 3 times a week for 8 weeks (12.5 mg/kg)
  Antitumor activity: only modest antitumor activity
GST-cyclophilin
  Inhibition of cyclophilin: did not inhibit

## C=C(c1ccc(C(=O)O)cc1)c1cc2c(cc1C)C(C)(C)CCC2(C)C [bexarotene]
GST-Pin1 [2]
  Pin1 binding in the FP assay: marginal binding

## CCCCCCCOc1cc2c(cc1/C(C)=C/c1ccc(C(=O)O)cc1)C(C)(C)CCS2(=O)=O [Ro-415253]
GST-Pin1 [2]
  Pin1 binding in the FP assay: minimal Pin1 binding
RAR
  Transactivation of RAR downstream target genes (RARβ, TGM2): suppresses it

## CC1=C(/C=C/C(C)=C/C=C/C(C)=C/C=O)C(C)(C)CCC1 [retinal]
GST-Pin1 [2]
  Pin1 binding in the FP assay: totally inactive

## Clc1cccc(C(c2ccc3[nH]cnc3c2)n2ccnc2)c1 (centres unmarked) [liarazole]
[6]; AU565 or SKBR3 cells, cytochrome P450 inhibitor plus ATRA
  Inhibition of cell proliferation in combination with ATRA: generally additive effects

## O=C(O[C@@H]1Cc2c(O)cc(O)cc2O[C@@H]1c1cc(O)c(O)c(O)c1)c1cc(O)c(O)c(O)c1 [EGCG]
NB4 cells
  APL cell differentiation: neither Pin1 inhibitors nor Pin1 KD induced APL cell differentiation
[4]
  Condition of treated mice (toxic effects): rather sick
  PML-RARα in the bone marrow: effectively reduced PML-RARα in the bone marrow
  Spleen weight: spleen weights nearly at basal levels
Human APL NB4 cells [1]
  PML-RARα level: dose-dependently reduced PML-RARα
Human APL NB4 cells [1]; NB4 cells
  Pin1 degradation: inhibited Pin1 without degrading it
